Columns and labels:
CDK1/Cyclin B1 = CDK1/Cyclin B1 (Homo sapiens, UniProt P06493); assay: CDK1/Cyclin B1 TR-FRET biochemical assay, 1 mM ATP; settings: 0.15 μM Rb (Ser780)-biotin substrate, 90 min reaction, Table 2
Experimental: (§1) Compounds disclosed herein were tested for inhibition of CDK2/Cyclin E1 or CDK1/Cyclin B kinase in an assay based on the time-resolved fluorescence-resonance energy transfer (TR-FRET) methodology. The assay was carried out in 384-well low volume black plates in a reaction mixture containing CDK2/Cyclin E1 or CDK1/Cyclin B1, 1 mM ATP for CDK2/Cyclin E1 and CDK1/Cyclin B1, 0.15 μM Rb (Ser780)-biotin substrate and 0-10 μM compound in buffer containing 50 mM HEPES pH7.0, 0.02% NaN3, 0.01% BSA, 0.1 mM Orthovanadate, 50 mM MgCl2, 1 mM DTT and 0.005% Tween-20. The kinase was incubated with compound for 60 minutes at room temperature and the reaction was initiated by the addition of ATP and Rb (Ser780)-biotin substrate. After reaction at room temperature for 90 minutes, an equal volume of stop/detection solution was added according to the manufacture's instruction (Cisbio Bioassays). The stop/detection solution contained Streptavidin-XL665 and Anti-pRb (Ser780) mAb-Eu Cryptate in Detection buffer (Cisbio Bioassays). Plates were incubated at room temperature for 60 minutes, and the TR-FRET signals (ex337 nm, em665 nm/620 nm) were recorded on a PHERAstar FSX plate reader (BMG Labtech). The inhibition percentage of CDK2/Cyclin E1 or CDK1/Cyclin B1 kinase activity in presence of increasing concentrations of compounds was calculated based on the ratio of fluorescence at 665 nm to that at 620 nm. The IC50 for each compound was derived from fitting the data to the four-parameter logistic equation by Dotmatics.

CDK2/Cyclin E1 = CDK2/Cyclin E1 (Homo sapiens, UniProt P24941); assay: CDK2/Cyclin E1 TR-FRET biochemical assay, 1 mM ATP; settings: 0.15 μM Rb (Ser780)-biotin substrate, 90 min reaction, Table 2
Experimental: as §1

Sequence of CDK1/Cyclin B1 (P06493 whole entry): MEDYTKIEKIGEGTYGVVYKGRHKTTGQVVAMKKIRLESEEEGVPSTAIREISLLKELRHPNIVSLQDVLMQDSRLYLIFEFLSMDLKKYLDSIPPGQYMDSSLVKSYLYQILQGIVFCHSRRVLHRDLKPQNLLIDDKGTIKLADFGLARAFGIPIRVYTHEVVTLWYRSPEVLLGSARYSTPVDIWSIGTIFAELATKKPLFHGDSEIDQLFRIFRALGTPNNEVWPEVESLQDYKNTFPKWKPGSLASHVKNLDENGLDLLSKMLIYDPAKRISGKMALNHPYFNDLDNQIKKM
Sequence of CDK1/Cyclin B1 (P14635 whole entry partner): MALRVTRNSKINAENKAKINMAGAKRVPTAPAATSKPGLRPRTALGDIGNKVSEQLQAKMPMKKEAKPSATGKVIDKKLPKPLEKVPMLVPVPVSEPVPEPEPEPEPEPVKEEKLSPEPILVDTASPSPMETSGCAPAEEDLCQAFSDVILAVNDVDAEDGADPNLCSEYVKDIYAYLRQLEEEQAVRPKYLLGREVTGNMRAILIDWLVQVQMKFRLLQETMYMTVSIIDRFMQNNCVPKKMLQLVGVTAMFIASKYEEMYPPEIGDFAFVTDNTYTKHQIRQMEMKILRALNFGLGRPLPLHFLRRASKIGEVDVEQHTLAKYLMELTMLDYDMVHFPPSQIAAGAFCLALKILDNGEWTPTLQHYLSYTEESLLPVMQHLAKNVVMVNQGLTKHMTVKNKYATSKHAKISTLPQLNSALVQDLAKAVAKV

SMILES	IC50 (CDK1/Cyclin B1)	IC50 (CDK2/Cyclin E1)
Cc1[nH]nc(C(C)(C)C)c1O[C@@H]1CC[C@H](c2cc(Nc3ccc4c(c3F)CNS4(=O)=O)n[nH]2)C1 (relative stereo) [Example 80, cis-5-((5-(3-((3-(tert-butyl)-5-methyl-1H-pyrazol-4-yl)oxy)cyclopentyl)-1H-pyrazol-3-yl)amino)-4-fluoro-2,3-dihydrobenzo[d]isothiazole 1,1-dioxide]	> 10 µM	1.12 µM
CC(C)(C)c1cn([C@@H]2CC[C@H](c3cc(Nc4ccc5c(c4F)CNS5(=O)=O)n[nH]3)C2)cn1 (relative stereo) [Example 88, cis-5-((5-(3-(4-(tert-butyl)-1H-imidazol-1-yl)cyclopentyl)-1H-pyrazol-3-yl)amino)-4-fluoro-2,3-dihydrobenzo[d]isothiazole 1,1-dioxide]	> 10 µM	> 10 µM
CC(C)(C)c1cnn([C@@H]2CC[C@H](c3cc(Nc4ccc5c(c4F)CNS5(=O)=O)n[nH]3)C2)c1 (relative stereo) [Example 89, cis-5-((5-(3-(4-(tert-butyl)-1H-pyrazol-1-yl)cyclopentyl)-1H-pyrazol-3-yl)amino)-4-fluoro-2,3-dihydrobenzo[d]isothiazole 1,1-dioxide]	> 10 µM	0.351 µM
CC(C)(C)c1cn([C@@H]2CC[C@H](c3cc(Nc4ccc5c(c4F)CNS5(=O)=O)n[nH]3)C2)nn1 (relative stereo) [Example 90, cis-5-((5-(3-(4-(tert-butyl)-1H-1,2,3-triazol-1-yl)cyclopentyl)-1H-pyrazol-3-yl)amino)-4-fluoro-2,3-dihydrobenzo[d]isothiazole 1,1-dioxide]	> 10 µM	3.31 µM
CC(C)(C)c1nnc([C@@H]2CC[C@H](c3cc(Nc4ccc5c(c4F)CNS5(=O)=O)n[nH]3)C2)o1 (relative stereo) [Example 96, cis-5-((5-(3-(5-(tert-butyl)-1,3,4-oxadiazol-2-yl)cyclopentyl)-1H-pyrazol-3-yl)amino)-4-fluoro-2,3-dihydrobenzo[d]isothiazole 1,1-dioxide]	> 10 µM	0.314 µM
CC(C)(C)c1nnc([C@H]2CC[C@H](c3cc(Nc4ccc5c(c4F)CNS5(=O)=O)n[nH]3)C2)o1 (relative stereo) [Example 97, trans-5-((5-(3-(5-(tert-butyl)-1,3,4-oxadiazol-2-yl)cyclopentyl)-1H-pyrazol-3-yl)amino)-4-fluoro-2,3-dihydrobenzo[d]isothiazole 1,1-dioxide]	> 10 µM	3.18 µM
CC(C)(C)c1ccc([C@@H]2CC[C@H](c3cc(Nc4ccc5c(c4F)CNS5(=O)=O)n[nH]3)C2)o1 (relative stereo) [Example 107, cis-5-((5-(3-(5-(tert-butyl)furan-2-yl)cyclopentyl)-1H-pyrazol-3-yl)amino)-4-fluoro-2,3-dihydrobenzo[d]isothiazole 1,1-dioxide]	> 10 µM	2.44 µM
CC(C)(C)c1ccc([C@H]2CC[C@H](c3cc(Nc4ccc5c(c4F)CNS5(=O)=O)n[nH]3)C2)o1 (relative stereo) [Example 108, trans-5-((5-(3-(5-(tert-butyl)furan-2-yl)cyclopentyl)-1H-pyrazol-3-yl)amino)-4-fluoro-2,3-dihydrobenzo[d]isothiazole 1,1-dioxide]	> 10 µM	8.51 µM
CC(C)(C)c1nnc([C@@H]2CC[C@H](c3cc(Nc4ccc5c(c4F)CS(=O)(=O)N5)n[nH]3)C2)o1 (relative stereo) [Example 146, cis-5-((5-(3-(5-(tert-butyl)-1,3,4-oxadiazol-2-yl)cyclopentyl)-1H-pyrazol-3-yl)amino)-4-fluoro-1,3-dihydrobenzo[c]isothiazole 2,2-dioxide]	> 10 µM	0.074 µM
CC(C)(C)c1nnc([C@H]2CC[C@H](c3cc(Nc4ccc5c(c4F)CS(=O)(=O)N5)n[nH]3)C2)o1 (relative stereo) [Example 147, trans-5-((5-(3-(5-(tert-butyl)-1,3,4-oxadiazol-2-yl)cyclopentyl)-1H-pyrazol-3-yl)amino)-4-fluoro-1,3-dihydrobenzo[c]isothiazole 2,2-dioxide]	> 10 µM	0.851 µM
CC(C)(C)c1cnc([C@@H]2CC[C@H](c3cc(Nc4ccc5c(c4F)CS(=O)(=O)N5)n[nH]3)C2)s1 (relative stereo) [Example 149, cis-5-((5-(3-(5-(tert-butyl)thiazol-2-yl)cyclopentyl)-1H-pyrazol-3-yl)amino)-4-fluoro-1,3-dihydrobenzo[c]isothiazole 2,2-dioxide]	> 10 µM	6.12 µM
CC(C)(C)c1cnc(C2CCC(c3cc(Nc4ccc(S(N)(=O)=O)cc4F)n[nH]3)C2)o1 (single isomer, unassigned) [Example 6b, 4-((5-(3-(5-(tert-butyl)oxazol-2-yl)cyclopentyl)-1H-pyrazol-3-yl)amino)-3-fluorobenzenesulfonamide]	> 10 µM	0.088 µM
CC(C)(C)c1cnc(C2CCC(c3cc(Nc4ccc(S(N)(=O)=O)cc4F)n[nH]3)C2)o1 (single isomer, unassigned) [Example 6c, 4-((5-(3-(5-(tert-butyl)oxazol-2-yl)cyclopentyl)-1H-pyrazol-3-yl)amino)-3-fluorobenzenesulfonamide]	> 10 µM	1.91 µM
CC(C)(C)c1cnc(C2CCC(c3cc(Nc4ccc(S(N)(=O)=O)cc4F)n[nH]3)C2)o1 (single isomer, unassigned) [Example 6d, 4-((5-(3-(5-(tert-butyl)oxazol-2-yl)cyclopentyl)-1H-pyrazol-3-yl)amino)-3-fluorobenzenesulfonamide]	> 10 µM	0.503 µM

Now from value to compound:

IC50 (CDK1/Cyclin B1)	IC50 (CDK2/Cyclin E1)	SMILES
> 10 µM	> 10 µM	CC(C)(C)c1ccnnc1O[C@H]1CC[C@H](c2cc(Nc3ccc4c(c3F)CNS4(=O)=O)n[nH]2)C1 (relative stereo) [Example 36, trans-5-((5-(3-((4-(tert-butyl)pyridazin-3-yl)oxy)cyclopentyl)-1H-pyrazol-3-yl)amino)-4-fluoro-2,3-dihydrobenzo[d]isothiazole 1,1-dioxide]
0.011 µM	0.0005 µM	CC(C)(C)c1ccnnc1O[C@@H]1CC[C@H](c2cc(Nc3ccc4c(c3F)CNS4(=O)=O)n[nH]2)C1 (relative stereo) [Example 37, cis-5-((5-(3-((4-(tert-butyl)pyridazin-3-yl)oxy)cyclopentyl)-1H-pyrazol-3-yl)amino)-4-fluoro-2,3-dihydrobenzo[d]isothiazole 1,1-dioxide]
> 10 µM	2.37 µM	CC(C)(C)c1cc(O[C@@H]2CC[C@H](c3cc(Nc4ccc5c(c4F)CNS5(=O)=O)n[nH]3)C2)ncn1 (relative stereo) [Example 38, cis-5-((5-(3-((6-(tert-butyl)pyrimidin-4-yl)oxy)cyclopentyl)-1H-pyrazol-3-yl)amino)-4-fluoro-2,3-dihydrobenzo[d]isothiazole 1,1-dioxide]
3.5 µM	0.0043 µM	CC(C)(C)c1csnc1O[C@@H]1CC[C@H](c2cc(Nc3ccc4c(c3F)CNS4(=O)=O)n[nH]2)C1 (relative stereo) [Example 56, cis-5-((5-(3-((4-(tert-butyl)isothiazol-3-yl)oxy)cyclopentyl)-1H-pyrazol-3-yl)amino)-4-fluoro-2,3-dihydrobenzo[d]isothiazole 1,1-dioxide]
> 10 µM	5.91 µM	Cn1ncc(C(C)(C)C)c1O[C@@H]1CC[C@H](c2cc(Nc3ccc4c(c3F)CNS4(=O)=O)n[nH]2)C1 (relative stereo) [Example 72, cis-5-((5-(3-((4-(tert-butyl)-1-methyl-1H-pyrazol-5-yl)oxy)cyclopentyl)-1H-pyrazol-3-yl)amino)-4-fluoro-2,3-dihydrobenzo[d]isothiazole 1,1-dioxide]
0.142 µM	0.0015 µM	CC(C)(C)c1ccnc([C@@H]2CC[C@H](c3cc(Nc4ccc5c(c4F)CNS5(=O)=O)n[nH]3)C2)n1 (relative stereo) [Example 127, cis-5-((5-(3-(4-(tert-butyl)pyrimidin-2-yl)cyclopentyl)-1H-pyrazol-3-yl)amino)-4-fluoro-2,3-dihydrobenzo[d]isothiazole 1,1-dioxide]
5.71 µM	0.054 µM	CC(C)(C)c1ncccc1O[C@@H]1CC[C@H](c2cc(Nc3ccc4c(c3)CS(=O)(=O)N4)n[nH]2)C1 (relative stereo) [Example 139, cis-5-((5-(3-((2-(tert-butyl)pyridin-3-yl)oxy)cyclopentyl)-1H-pyrazol-3-yl)amino)-1,3-dihydrobenzo[c]isothiazole 2,2-dioxide]
2 µM	0.003 µM	CC(C)(C)c1cnc(C2CCC(c3cc(Nc4ccc(S(N)(=O)=O)cc4F)n[nH]3)C2)o1 (single isomer, unassigned) [Example 6a, 4-((5-(3-(5-(tert-butyl)oxazol-2-yl)cyclopentyl)-1H-pyrazol-3-yl)amino)-3-fluorobenzenesulfonamide]

Reference: patent US20260200897A1, “4-((5-(3-(4-(PYRIDIN-2-YL)CYCLOPENTYL)-1H-PYRAZOL-3-YL)AMINO)-BENZENESULFONAMIDE DERIVATIVES AND SIMILAR COMPOUNDS AS CDK INHIBITORS FOR THE TREATMENT OF CANCER” (BeOne Medicines I GmbH, priority 2023, published 2026)
